Target: T1, human MCP (Homo sapiens, UniProt P28074+Q99436)
T1 construct: Samples of human liver and brain obtained post-mortem were used for isolation and partial purification of MCP; from tissue; host or cells: human liver and brain, post-mortem
Test: Determination of IC50 values for MCP inhibitors (chymotrypsin-like or trypsin-like activity of MCP)
Type: biochemical
Details: for % Inhibition (1 μM): 1 μM inhibitor
Protocol: Samples of human liver and brain obtained post-mortem were used for isolation and partial purification of MCP by ion-exchange chromatography, ammonium sulfate precipitation, and gel filtration (e.g., Driscoll and Goldberg, Proc. Natl. Acad. Sci. 86, 787-791 (1989); Yamamoto et al., Biochim, Biophys. Acta 882, 297-304 (1986). For either starting material, tissue was homogenized in 10 volumes of 20 mM Tris-HCl (pH 7.5) containing 20% glycerol. Following centrifugation at 40,000×g for 30 minutes, proteolytic activity of the chymotrypsin-like component of MCP could be detected in the supernatant (see below). The supernatant was fractionated on a DEAE-Sepharose Fast Flow column equilibrated in homogenization buffer. For each liter of supernatant, 250 ml of resin was used. Following sample loading, the column was washed with ^~ 10 volumes homogenization buffer, and proteins were eluted with a linear NaCl gradient of from 0 to 400 mM (21 for 250 ml resin). Fractions were assayed for MCP activity, and the active fractions were pooled and subjected to precipitation with (NH4)2 SO4 at 80% saturation. Precipitated proteins were collected by centrifugation, resuspended in homogenization buffer, and loaded on a Sephacryl S300HR column (500 ml resin volume) that had been standardized using bovine serum albumin (68 kDa). A single peak of MCP activity was eluted with a molecular weight of ^~ 650 kDa. This preparation was free of other measurable proteolytic activities and maintained its MCP activity upon storage at 4° C. for >6 months. This preparation was used for most of the experiments. Further fractionation of the preparation on an hydroxyapatite-Ultrogel column (Yamamoto et al., supra) yielded a more highly purified enzyme, which according to denaturing SDS-polyacrylamide gel electrophoresis was comprised of the expected >10 subunits ranging in Mr from 20 to 35 kDa.
The procedure for MPC isolation described above generated an enzyme complex whose proteolytic activities were latent, but which could be activated by addition of low concentrations (0.02-0.05%) of SDS (Yamamoto et al., supra). The chymotrypsin-like activity was assayed according to the following procedure: in 96 well microtiter plates, human MCP was diluted 4 to 10-fold in homogenization buffer containing 0.04% SDS. A calorimetric substrate MeOSuc-EVKM-para-nitroanilide (methoxysuccinyl-Glu-Val-Lys-Met-pNa), purchased from Bachem Bioscience Inc., King of Prussia, Pennsylvania was added to a final concentration of 100 μM from a stock solution of 10 mM in dimethylsulfoxide. Reaction volumes were 200 μl per well. After incubation for various periods of time at 37° C., the concentration of free pNa was determined on a Biotech EL-340 microplate reader, reading absorption at 490 nm. Protease activity was determined under conditions in which substrate hydrolysis increased linearly with time and the change in absorption was proportional to the concentration of free pNa. Alternatively, a fluorogenic substrate was used, methoxysuccinyl-Phe-Leu-Phe-amidomethylcoumarin (Enzyme Systems Products, Dublin, Calif.), and the change in fluorescence monitored at an excitation of 390 nm, and an emission at 460 nm.
The trypsin-like activity of human MCP was assayed as described above with the following modifications. Reactions were carried out in Tris-glycerol buffer (pH 9.5) supplemented with 1 mM 2-mercaptoethanol, and the substrate was a fluorogenic substrate, Benzyloxycarbonyl--Phe--Arg--AMC (100 μM).
After incubation for various periods of time at 37° C., the concentration of free AMC was determined on a Fluoroskan II spectrofluorimeter with an excitation filter of 390 nm and an emission filter of 460 nm. Protease activity was determined under conditions in which substrate hydrolysis increased linearly with time and the change in fluorescence was proportional to the concentration of free AMC. […]

[1] = Table 5, first series, enzyme incubated with inhibitor 15 minutes at 37° C. prior to substrate

Row | SMILES | IC50 [1] | other results
1 | Cc1c(C)c(S(=O)(=O)NC(=N)NCCC[C@H](NC(=O)C(CCCCCCCCC#N)C2CCCC2)C(=O)N[C@H](C=O)CC(C)C)c(C)c2c1OC(C)(C)CC2 (stereo partly drawn) [Compound 15, 10-Cyano-2-cyclopentyl-decanoyl-N^g-(2,2,5,7,8-pentamethylchroman-6-sulfonyl)-L-arginyl-L-leucinal] | 20 nM | 
2 | COC(=O)CCCCCCCC(C(=O)N[C@@H](CCCNC(N)=NS(=O)(=O)c1c(C)cc(OC)c(C)c1C)C(=O)N[C@H](C=O)CC(C)C)C1CCCC1 (stereo partly drawn) [Compound 21, 9-Methoxycarbonyl-2-cyclopentyl-nonanoyl-N^g-(4-methoxy-2,3,6-trimethyl-benzene-1-sulfonyl)-L-arginyl-L-leucinal] | 30 nM | 
3 | CCCC[C@@H](C=O)NC(=O)[C@H](CCCN=C(N)NS(=O)(=O)c1c(C)c(C)c2c(c1C)CCC(C)(C)O2)NC(=O)CCCCCCCC(=O)OC [Compound 30, Monomethylazelayl-N^g-(2,2,5,7,8-pentamethylchroman-6-sulfonyl)-L-arginyl-L-norleucinal] | > 100 nM | 
4 | N#CCCCCCCCCC(C(=O)N[C@@H](CCCNC(N)=N[N+](=O)[O-])C(=O)NC(Cc1ccccc1)C(=O)CF)C1CCCC1 (stereo partly drawn) [Example 42, 10-Cyano-2-cyclopentyl-decanoyl-N^g-nitro-L-arginyl-phenylalanine fluoromethylketone] |  | IC50 (Table 7): > 1000 nM; % Inhibition (1 μM) (Table 7): 15%
5 | Cc1c(C)c(S(=O)(=O)NC(N)=NCCC[C@H](NS(=O)(=O)CCCCCCC#N)C(=O)N[C@H](C=O)CC(C)C)c(C)c2c1OC(C)(C)CC2 [Compound 36, 6-Cyano-hexane-1-sulfonyl-N^g-(2,2,5,7,8-pentamethylchroman-6-sulfonyl)-L-arginyl-L-leucinal] |  | IC50 (Table 5, second series (Examples 36-38), enzyme incubated with inhibitor 15 minutes at 37° C. prior to substrate): > 100 nM
6 | CCNC(=O)C(=O)[C@H](CC(C)C)NC(=O)[C@H](CCCNC(N)=N[N+](=O)[O-])NC(=O)C(CCCCCCCCC#N)C1CCCC1 (single isomer, unassigned; isomer a) [41 (Isomer a), 10-Cyano-2-Cyclopentyl-decanoyl-N^g-nitro-L-arginyl-L-leucine alpha-ketoethylamide] |  | IC50 (Table 7): 22 nM; % Inhibition (1 μM) (Table 7, 1 µM): 99%

Second part, led by results:

Row | IC50 [1] | SMILES | other results
7 | 40 nM | COC(=O)CCCCCCCC(=O)N[C@@H](CCCNC(N)=NS(=O)(=O)c1c(C)cc(C)cc1C)C(=O)N[C@H](C=O)CC(C)C [Compound 35, Methoxyazelayl-N^g-(2,4,6-trimethylbenzene-1-sulfonyl)-L-arginyl-L-leucinal] | 
8 | 700 nM | COC(=O)CCCCCCCC(=O)N[C@@H](CCCNC(N)=NS(=O)(=O)c1c(C)cc(OC)c(C)c1C)C(=O)N[C@H](C=NNC(N)=S)CC(C)C [Compound 33, Monomethylazelayl-N^g-(4-methoxy,2,3,6-trimethyl-1-sulfonyl)-L-arginyl-L-leucinal thiosemicarbazone] | 
9 | 220 nM | COC(=O)CCCCCCCC(=O)N[C@@H](CCCNC(N)=NS(=O)(=O)c1c(C)cc(OC)c(C)c1C)C(=O)N[C@H](C=NNC(N)=O)CC(C)C [Compound 32, Monomethylazelayl-N^g-(4-methoxy,2,3,6-trimethyl-1-sulfonyl)-L-arginyl-L-leucinal semicarbazone] | 

Source: patent US5990083A, “Multicatalytic protease inhibitors” (Cephalon, Inc., priority 1997, dated 1999)
